Values of other authors as cited in US12667577B2, “Pharmaceutical composition, and aprepitant injection and freeze-dried powder injection” (WISDOM PHARMACEUTICAL CO., LTD, priority 2022, dated 2026).
Converted amounts (≈) assume the structure as drawn.

What was measured:
[1] = molecular target: human substance P neurokinin-1 (NK1) receptor (Homo sapiens, UniProt P25103)
[2] = molecular target: T1, 5-hydroxytryptamine receptor 3 (5-HT3) (Homo sapiens, UniProt P46098)
T1 sequence (P46098 24-478): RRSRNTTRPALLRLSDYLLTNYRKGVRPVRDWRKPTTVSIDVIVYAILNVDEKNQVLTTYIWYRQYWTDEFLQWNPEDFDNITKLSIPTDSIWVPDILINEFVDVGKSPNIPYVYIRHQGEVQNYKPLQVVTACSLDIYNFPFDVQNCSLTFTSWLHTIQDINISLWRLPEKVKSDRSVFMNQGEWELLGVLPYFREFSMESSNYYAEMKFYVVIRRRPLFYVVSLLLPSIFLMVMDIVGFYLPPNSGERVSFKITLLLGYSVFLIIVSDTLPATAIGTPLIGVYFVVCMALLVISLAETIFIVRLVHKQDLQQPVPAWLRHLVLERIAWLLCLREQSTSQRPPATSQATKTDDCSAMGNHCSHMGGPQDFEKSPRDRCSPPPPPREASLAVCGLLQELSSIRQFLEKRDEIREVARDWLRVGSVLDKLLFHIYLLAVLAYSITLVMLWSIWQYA

[3] = clinical data
glucocorticoid receptor = molecular target: T2, glucocorticoid receptor (Homo sapiens, UniProt P04150)
T2 sequence (P04150 1-777): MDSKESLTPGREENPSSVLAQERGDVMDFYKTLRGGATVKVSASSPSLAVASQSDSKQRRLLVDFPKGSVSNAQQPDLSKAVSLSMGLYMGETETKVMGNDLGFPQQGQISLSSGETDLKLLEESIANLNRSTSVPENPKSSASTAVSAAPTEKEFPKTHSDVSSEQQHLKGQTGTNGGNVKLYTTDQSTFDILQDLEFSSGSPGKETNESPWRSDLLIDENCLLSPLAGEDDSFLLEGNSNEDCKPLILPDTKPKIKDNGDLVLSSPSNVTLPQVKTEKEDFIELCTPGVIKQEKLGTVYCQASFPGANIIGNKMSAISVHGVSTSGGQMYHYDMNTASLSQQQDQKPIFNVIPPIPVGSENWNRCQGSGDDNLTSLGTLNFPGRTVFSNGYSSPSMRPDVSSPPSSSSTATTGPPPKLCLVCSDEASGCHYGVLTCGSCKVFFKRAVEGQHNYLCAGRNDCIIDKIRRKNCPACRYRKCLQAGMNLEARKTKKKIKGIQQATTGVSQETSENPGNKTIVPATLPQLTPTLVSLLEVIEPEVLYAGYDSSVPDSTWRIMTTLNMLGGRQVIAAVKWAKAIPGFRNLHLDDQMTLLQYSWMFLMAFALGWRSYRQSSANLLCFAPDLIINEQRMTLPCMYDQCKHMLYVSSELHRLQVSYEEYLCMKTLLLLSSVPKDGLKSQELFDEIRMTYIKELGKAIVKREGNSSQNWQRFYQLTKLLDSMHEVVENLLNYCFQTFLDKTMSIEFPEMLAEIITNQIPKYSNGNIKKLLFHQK

Chain of human substance P neurokinin-1 (NK1) receptor (P25103 whole entry): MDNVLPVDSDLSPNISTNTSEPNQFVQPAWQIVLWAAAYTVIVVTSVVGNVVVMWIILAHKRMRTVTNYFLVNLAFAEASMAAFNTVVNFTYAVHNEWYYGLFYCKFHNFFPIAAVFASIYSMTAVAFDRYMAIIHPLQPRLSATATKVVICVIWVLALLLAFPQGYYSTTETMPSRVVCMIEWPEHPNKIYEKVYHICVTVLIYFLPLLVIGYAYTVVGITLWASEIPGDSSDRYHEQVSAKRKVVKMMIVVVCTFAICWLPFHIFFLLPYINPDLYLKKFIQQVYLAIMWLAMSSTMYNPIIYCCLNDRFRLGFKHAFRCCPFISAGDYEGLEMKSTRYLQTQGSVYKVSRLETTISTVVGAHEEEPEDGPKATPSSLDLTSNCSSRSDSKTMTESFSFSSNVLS

Question: With `C[C@@H](O[C@H]1OCCN(Cc2n[nH]c(=O)[nH]2)[C@H]1c1ccc(F)cc1)c1cc(C(F)(F)F)cc(C(F)(F)F)c1` [aprepitant, Aprepitant] as the compound, how does the “affinity to NK1 receptor” value [1] read?
Answer: high-affinity

Question: And the classification in biopharmaceutics (low dissolution and low permeability)?
Answer: Class IV

Question: What about the “solubility in ethanol, isopropyl acetate, and acetonitrile” value (room temperature) of the same compound?
Answer: slightly soluble

Question: And the solubility in water (room temperature)?
Answer: 0.55 µg/mL (≈ 1.03 µM)

Question: And the “affinity to dopamine receptor” value (dopamine receptor)?
Answer: low or no affinity

Question: What about the “affinity to 5-HT3” value [2] of the same compound?
Answer: low or no affinity

Question: And the “adverse effect rate at injection sites” value [3]?
Answer: 0.5%

Question: What about the “affinity to glucocorticoid receptor” value (glucocorticoid receptor) of the same compound?
Answer: low or no affinity
